# Experimental data: ChEMBL document CHEMBL1671626, “In vitro profiling of ceftaroline against a collection of recent bacterial clinical isolates from across the United States” (2008)
# How the values were obtained:
# Format in all cases: functional
# Morganella morganii [1] = experiment: Antibacterial activity against ceftazidime-susceptible Morganella morganii assessed as resistant isolates by CLSI M7-A7 broth microdilution method
# Enterobacteriaceae [2] = experiment: Antibacterial activity against ceftazidime-susceptible Enterobacteriaceae assessed as resistant isolates by CLSI M7-A7 broth microdilution method
# Escherichia coli [3] = experiment: Antibacterial activity against ceftazidime-nonsusceptible Escherichia coli assessed as resistant isolates by CLSI M7-A7 broth microdilution method
# Haemophilus influenzae [4] = experiment: Antibacterial activity against beta lactamase-negative Haemophilus influenzae assessed as resistant isolates by CLSI M7-A7 broth microdilution method
# Enterobacter cloacae [5] = experiment: Antibacterial activity against ceftazidime-susceptible Enterobacter cloacae assessed as resistant isolates by CLSI M7-A7 broth microdilution method
# Proteus mirabilis [6] = experiment: Antibacterial activity against ceftazidime-susceptible Proteus mirabilis assessed as susceptible isolates by CLSI M7-A7 broth microdilution method
# Enterobacter cloacae [7] = experiment: Antibacterial activity against ceftazidime-nonsusceptible Enterobacter cloacae assessed as resistant isolates by CLSI M7-A7 broth microdilution method
# Klebsiella pneumoniae [8] = experiment: Antibacterial activity against ceftazidime-nonsusceptible Klebsiella pneumoniae assessed as resistant isolates by CLSI M7-A7 broth microdilution method
# Acinetobacter [9] = experiment: Antibacterial activity against imipenem-susceptible Acinetobacter by CLSI M7-A7 broth microdilution method
# Klebsiella pneumoniae [10] = experiment: Antibacterial activity against ceftazidime-susceptible Klebsiella pneumoniae by CLSI M7-A7 broth microdilution method
# Haemophilus influenzae [11] = experiment: Antibacterial activity against beta lactamase-positive Haemophilus influenzae assessed as susceptible isolates by CLSI M7-A7 broth microdilution method
# Acinetobacter [12] = experiment: Antibacterial activity against imipenem-susceptible Acinetobacter assessed as resistant isolates by CLSI M7-A7 broth microdilution method
# Enterobacter cloacae [13] = experiment: Antibacterial activity against ceftazidime-nonsusceptible Enterobacter cloacae by CLSI M7-A7 broth microdilution method
# Enterobacteriaceae [14] = experiment: Antibacterial activity against ceftazidime-nonsusceptible Enterobacteriaceae by CLSI M7-A7 broth microdilution method
# Enterobacter cloacae [15] = experiment: Antibacterial activity against ceftazidime-susceptible Enterobacter cloacae by CLSI M7-A7 broth microdilution method
# Enterobacteriaceae [16] = experiment: Antibacterial activity against ceftazidime-nonsusceptible Enterobacteriaceae assessed as susceptible isolates by CLSI M7-A7 broth microdilution method
# Proteus mirabilis [17] = experiment: Antibacterial activity against ceftazidime-susceptible Proteus mirabilis by CLSI M7-A7 broth microdilution method
# Klebsiella pneumoniae [18] = experiment: Antibacterial activity against ceftazidime-susceptible Klebsiella pneumoniae assessed as resistant isolates by CLSI M7-A7 broth microdilution method
# Serratia marcescens [19] = experiment: Antibacterial activity against ceftazidime-susceptible Serratia marcescens assessed as susceptible isolates by CLSI M7-A7 broth microdilution method
# Klebsiella pneumoniae [20] = experiment: Antibacterial activity against ceftazidime-nonsusceptible Klebsiella pneumoniae assessed as susceptible isolates by CLSI M7-A7 broth microdilution method
# Haemophilus influenzae [21] = experiment: Antibacterial activity against beta lactamase-negative Haemophilus influenzae by CLSI M7-A7 broth microdilution method
# Escherichia coli [22] = experiment: Antibacterial activity against ceftazidime-susceptible Escherichia coli assessed as susceptible isolates by CLSI M7-A7 broth microdilution method
# Enterobacter cloacae [23] = experiment: Antibacterial activity against ceftazidime-susceptible Enterobacter cloacae assessed as susceptible isolates by CLSI M7-A7 broth microdilution method
# Proteus mirabilis [24] = experiment: Antibacterial activity against ceftazidime-susceptible Proteus mirabilis assessed as resistant isolates by CLSI M7-A7 broth microdilution method
# Citrobacter freundii [25] = experiment: Antibacterial activity against ceftazidime-nonsusceptible Citrobacter freundii by CLSI M7-A7 broth microdilution method
# Haemophilus influenzae [26] = experiment: Antibacterial activity against beta lactamase-positive Haemophilus influenzae assessed as resistant isolates by CLSI M7-A7 broth microdilution method
# Citrobacter freundii [27] = experiment: Antibacterial activity against ceftazidime-susceptible Citrobacter freundii assessed as resistant isolates by CLSI M7-A7 broth microdilution method
# Escherichia coli [28] = experiment: Antibacterial activity against ceftazidime-susceptible Escherichia coli by CLSI M7-A7 broth microdilution method
# Enterobacter cloacae [29] = experiment: Antibacterial activity against ceftazidime-nonsusceptible Enterobacter cloacae assessed as susceptible isolates by CLSI M7-A7 broth microdilution method
# Citrobacter freundii [30] = experiment: Antibacterial activity against ceftazidime-nonsusceptible Citrobacter freundii assessed as susceptible isolates by CLSI M7-A7 broth microdilution method
# Acinetobacter [31] = experiment: Antibacterial activity against imipenem-susceptible Acinetobacter assessed as susceptible isolates by CLSI M7-A7 broth microdilution method
# Klebsiella pneumoniae [32] = experiment: Antibacterial activity against ceftazidime-susceptible Klebsiella pneumoniae assessed as susceptible isolates by CLSI M7-A7 broth microdilution method
# Providencia sp. [33] = experiment: Antibacterial activity against ceftazidime-susceptible Providencia sp. assessed as resistant isolates by CLSI M7-A7 broth microdilution method
# Escherichia coli [34] = experiment: Antibacterial activity against ceftazidime-nonsusceptible Escherichia coli by CLSI M7-A7 broth microdilution method
# Acinetobacter [35] = experiment: Antibacterial activity against multidrug-resistant Acinetobacter assessed as susceptible isolates by CLSI M7-A7 broth microdilution method
# Morganella morganii [36] = experiment: Antibacterial activity against ceftazidime-susceptible Morganella morganii assessed as susceptible isolates by CLSI M7-A7 broth microdilution method
# Providencia sp. [37] = experiment: Antibacterial activity against ceftazidime-susceptible Providencia sp. assessed as susceptible isolates by CLSI M7-A7 broth microdilution method
# Providencia sp. [38] = experiment: Antibacterial activity against ceftazidime-susceptible Providencia sp. by CLSI M7-A7 broth microdilution method
# Serratia marcescens [39] = experiment: Antibacterial activity against ceftazidime-susceptible Serratia marcescens assessed as resistant isolates by CLSI M7-A7 broth microdilution method
# Enterobacteriaceae [40] = experiment: Antibacterial activity against ceftazidime-susceptible Enterobacteriaceae assessed as susceptible isolates by CLSI M7-A7 broth microdilution method
# Escherichia coli [41] = experiment: Antibacterial activity against ceftazidime-nonsusceptible Escherichia coli assessed as susceptible isolates by CLSI M7-A7 broth microdilution method
# Enterobacteriaceae [42] = experiment: Antibacterial activity against ceftazidime-susceptible Enterobacteriaceae by CLSI M7-A7 broth microdilution method
# Citrobacter freundii [43] = experiment: Antibacterial activity against ceftazidime-nonsusceptible Citrobacter freundii assessed as resistant isolates by CLSI M7-A7 broth microdilution method
# Serratia marcescens [44] = experiment: Antibacterial activity against ceftazidime-susceptible Serratia marcescens by CLSI M7-A7 broth microdilution method
# Enterobacteriaceae [45] = experiment: Antibacterial activity against ceftazidime-nonsusceptible Enterobacteriaceae assessed as resistant isolates by CLSI M7-A7 broth microdilution method
# Acinetobacter [46] = experiment: Antibacterial activity against multidrug-resistant Acinetobacter assessed as resistant isolates by CLSI M7-A7 broth microdilution method
# Klebsiella pneumoniae [47] = experiment: Antibacterial activity against ceftazidime-nonsusceptible Klebsiella pneumoniae by CLSI M7-A7 broth microdilution method
# Morganella morganii [48] = experiment: Antibacterial activity against ceftazidime-susceptible Morganella morganii by CLSI M7-A7 broth microdilution method
# Haemophilus influenzae [49] = experiment: Antibacterial activity against beta lactamase-positive Haemophilus influenzae by CLSI M7-A7 broth microdilution method
# Acinetobacter [50] = experiment: Antibacterial activity against multidrug-resistant Acinetobacter by CLSI M7-A7 broth microdilution method
# Haemophilus influenzae [51] = experiment: Antibacterial activity against beta lactamase-negative Haemophilus influenzae assessed as susceptible isolates by CLSI M7-A7 broth microdilution method
# Escherichia coli [52] = experiment: Antibacterial activity against ceftazidime-susceptible Escherichia coli assessed as resistant isolates by CLSI M7-A7 broth microdilution method
# Citrobacter freundii [53] = experiment: Antibacterial activity against ceftazidime-susceptible Citrobacter freundii assessed as susceptible isolates by CLSI M7-A7 broth microdilution method
# Citrobacter freundii [54] = experiment: Antibacterial activity against ceftazidime-susceptible Citrobacter freundii by CLSI M7-A7 broth microdilution method
structure (smiles),measurement,setting,value
CCN1CCN(C(=O)N[C@@H](C(=O)N[C@@H]2C(=O)N3[C@@H]2SC(C)(C)[C@@H]3C(=O)O)c2ccccc2)C(=O)C1=O [PIPERACILLIN],Activity,Morganella morganii [1],0%
same,Activity,Enterobacteriaceae [2],1.6%
same,Activity,Escherichia coli [3],17.5%
same,Activity,Haemophilus influenzae [4],0%
same,Activity,Enterobacter cloacae [5],2%
same,Activity,Proteus mirabilis [6],100%
same,Activity,Enterobacter cloacae [7],54.3%
same,Activity,Klebsiella pneumoniae [8],62.1%
same,MIC50,Acinetobacter [9],8 µg/mL
same,MIC90,Acinetobacter [9],> 64 µg/mL
same,MIC50,Klebsiella pneumoniae [10],2 µg/mL
same,MIC90,Klebsiella pneumoniae [10],8 µg/mL
same,Activity,Haemophilus influenzae [11],99%
same,Activity,Acinetobacter [12],21.3%
same,MIC50,Enterobacter cloacae [13],> 64 µg/mL
same,MIC90,Enterobacter cloacae [13],> 64 µg/mL
same,MIC50,Enterobacteriaceae [14],32 µg/mL
same,MIC90,Enterobacteriaceae [14],> 64 µg/mL
same,MIC50,Enterobacter cloacae [15],2 µg/mL
same,MIC90,Enterobacter cloacae [15],4 µg/mL
same,Activity,Enterobacteriaceae [16],43.2%
same,MIC,Proteus mirabilis [17],≤ 0.5 µg/mL
same,MIC50,Proteus mirabilis [17],≤ 0.5 µg/mL
same,MIC90,Proteus mirabilis [17],1 µg/mL
same,Activity,Klebsiella pneumoniae [18],0.5%
same,Activity,Serratia marcescens [19],93.2%
same,Activity,Klebsiella pneumoniae [20],24.2%
same,MIC,Haemophilus influenzae [21],≤ 0.03 µg/mL
same,MIC50,Haemophilus influenzae [21],≤ 0.03 µg/mL
same,MIC90,Haemophilus influenzae [21],0.06 µg/mL
same,Activity,Escherichia coli [22],96.5%
same,Activity,Enterobacter cloacae [23],98%
same,Activity,Proteus mirabilis [24],0%
same,MIC50,Citrobacter freundii [25],32 µg/mL
same,MIC90,Citrobacter freundii [25],> 64 µg/mL
same,Activity,Haemophilus influenzae [26],1%
same,Activity,Citrobacter freundii [27],0%
same,MIC50,Escherichia coli [28],1 µg/mL
same,MIC90,Escherichia coli [28],4 µg/mL
same,Activity,Enterobacter cloacae [29],25.7%
same,Activity,Citrobacter freundii [30],24.2%
same,Activity,Acinetobacter [31],68.1%
same,Activity,Klebsiella pneumoniae [32],97.1%
same,Activity,Providencia sp. [33],3.7%
same,MIC50,Escherichia coli [34],16 µg/mL
same,MIC90,Escherichia coli [34],> 64 µg/mL
same,Activity,Acinetobacter [35],0%
same,Activity,Morganella morganii [36],100%
same,Activity,Providencia sp. [37],92.6%
same,MIC50,Providencia sp. [38],2 µg/mL
same,MIC90,Providencia sp. [38],16 µg/mL
same,Activity,Serratia marcescens [39],3.4%
same,Activity,Enterobacteriaceae [40],97%
same,Activity,Escherichia coli [41],68.3%
same,MIC50,Enterobacteriaceae [42],2 µg/mL
same,MIC90,Enterobacteriaceae [42],4 µg/mL
same,Activity,Citrobacter freundii [43],39.4%
same,MIC50,Serratia marcescens [44],2 µg/mL
same,MIC90,Serratia marcescens [44],16 µg/mL
same,Activity,Enterobacteriaceae [45],38.6%
same,Activity,Acinetobacter [46],87.5%
same,MIC50,Klebsiella pneumoniae [47],> 64 µg/mL
same,MIC90,Klebsiella pneumoniae [47],> 64 µg/mL
same,MIC,Morganella morganii [48],≤ 0.5 µg/mL
same,MIC50,Morganella morganii [48],≤ 0.5 µg/mL
same,MIC90,Morganella morganii [48],1 µg/mL
same,MIC,Haemophilus influenzae [49],≤ 0.03 µg/mL
same,MIC50,Haemophilus influenzae [49],≤ 0.03 µg/mL
same,MIC90,Haemophilus influenzae [49],0.06 µg/mL
same,MIC50,Acinetobacter [50],> 64 µg/mL
same,Activity,Haemophilus influenzae [51],100%
same,Activity,Escherichia coli [52],2.3%
same,Activity,Citrobacter freundii [53],100%
same,MIC50,Citrobacter freundii [54],2 µg/mL
same,MIC90,Citrobacter freundii [54],4 µg/mL
